Measurements as given in ChEMBL document CHEMBL1158214, “Rollinecins A and B: two new bioactive annonaceous acetogenins from Rollinia mucosa” (J Nat Prod, 1996).
Values after ≈ are worked out from the molar mass of the structure shown.

Experiments:
HT-29 = assay: Cytotoxicity against human HT29 cells; assay type: functional; conditions: read-out: ED50 (the source's name)
[1] = Toxicity in brine shrimp; assay type: organism-based; conditions: artemia, in vivo
A549 = assay: Cytotoxicity against human A549 cells; assay type: functional
MCF7 = assay: Cytotoxicity against human MCF7 cells; assay type: functional; conditions: read-out: ED50 (the source's name)
A498 = assay: Cytotoxicity against human A498 cells; assay type: functional
PC-3 = assay: Cytotoxicity against human PC3 cells; assay type: functional
MIA PaCa-2 = assay: Cytotoxicity against human MIAPaCa2 cells; assay type: functional

| Compound | EC50 (HT-29) [µg/mL] | LC50 [1] [µg/mL] | ED50 (A549) [×10⁻⁴ ug/ml] | EC50 (MCF7) [µg/mL] | ED50 (A498) [×10⁻⁴ ug/ml] | ED50 (PC-3) [×10⁻⁴ ug/ml] | ED50 (MIA PaCa-2) | EC50 (A549; Homo sapiens, A549, read-out: ED50 (the source's name)) [µg/mL] | EC50 (A498; Homo sapiens, A498, read-out: ED50 (the source's name)) [µg/mL] | EC50 (PC-3; Homo sapiens, PC-3, read-out: ED50 (the source's name)) [µg/mL] | EC50 (MIA PaCa-2; Homo sapiens, MIA PaCa-2, read-out: ED50 (the source's name)) [µg/mL] |
| --- | --- | --- | --- | --- | --- | --- | --- | --- | --- | --- | --- |
| CCCCCCCCCCCC[C@H](O)[C@H]1CC[C@H]([C@H](O)CC[C@H](O)CCCCCCCCC[C@@H](O)CC2=C[C@H](C)OC2=O)O1 [ROLLINECIN A] | 1.6 (≈ 2.56 µM) | 0.31 (≈ 0.496 µM) | 1.14 | 1.44 (≈ 2.3 µM) | 7.25 | 2.62 | 3.47 ×10⁻⁵ ug/ml |  |  |  |  |
| COc1cccc2c1C(=O)c1c(O)c3c(c(O)c1C2=O)C[C@@](O)(C(=O)CO)C[C@@H]3O[C@H]1C[C@H](N)[C@H](O)[C@H](C)O1 [DOXORUBICIN] | 0.0193 (≈ 0.0355 µM) |  |  | 0.0968 (≈ 0.178 µM) |  |  |  | 0.00157 (≈ 0.00289 µM) | 0.0019 (≈ 0.0035 µM) | 0.0281 (≈ 0.0517 µM) | 0.0224 (≈ 0.0412 µM) |
| CCCCCCCCCCCC[C@H](O)[C@H]1CC[C@H]([C@H](O)CC[C@@H](O)CCCCCCCCC[C@@H](O)CC2=C[C@H](C)OC2=O)O1 [ROLLINECIN B] | 1.44 (≈ 2.3 µM) | 0.13 (≈ 0.208 µM) | 4.23 | 2.72 (≈ 4.35 µM) | 2.29 | 3.62 | 2.53 ×10⁻⁴ ug/ml |  |  |  |  |
